We go through one molecule from patent publication US20050222147A1, “Process for the preparation of morpholine derivatives and intermediates therefore” (priority 2000, published 2005).

For one assay, the target named is eosinophil chemotaxis. As to the kind of experiment: Eosinophil chemotaxis assay (eotaxin-induced). It is filed as cell-based, human. Particulars: functional pKi (fpKi). As for the experimental part:
(b) Eosinophil Chemotaxis Assay.
Compounds were evaluated for their inhibitory effect on eosinophil chemotaxis. Eosinophils were purified from human peripheral blood by standard CD16 cell depletion using a Miltenyi cell separation column and a magnetic Super Macs magnet as previously described (Motegi & Kita, 1998; J. Immunology. 161:4340-6). Cells were re-suspended in RPMI 1640/10% FCS solution and incubated with calcein-AM (Molecular Probes) at 37° C. for 30 mins. Following incubation, the eosinophils were centrifuged at 400 g for 5 min and re-suspended in RPMI/FCS at 2.2 million/ml. Cells. were then incubated in the presence of increasing concentration of compounds (1 pM to 30 μM) at 37° C. for 30 mins. For control responses cells were incubated with RPMI/FCS only. The agonist eotaxin (either a concentration response curve or for the functional inhibition curves an EC80 concentration) was added to the lower chamber of a 96 well chemotaxis plate (5 μm filter: Receptor Technologies). Eosinophils (50 μl of 2 million/ml cells) were added to the top chamber of the filter plate and incubated at 37° C. for 45 mins. Cells remaining on top of the chemotaxis filter were removed and the number of eosinophils which had migrated were quantified by reading the plate on a fluorescent plate reader. Inhibition curves for the effect of compounds on eosinophil chemotaxis were analysed by fitting the data with a four parameter logistic equation. Functional pK1 values (fpK1) were generated using the equation below (Lazareno & Birdsall, 1995. Br. J. Pharmacol 109: 1110-9). [formula] (c) Guinea-pig Ovalbumin Model

The target in another assay is T1, CCR-3 (Homo sapiens, UniProt P51677).
T1 construct: expressed in transfected cells
T1 sequence (P51677 1-355): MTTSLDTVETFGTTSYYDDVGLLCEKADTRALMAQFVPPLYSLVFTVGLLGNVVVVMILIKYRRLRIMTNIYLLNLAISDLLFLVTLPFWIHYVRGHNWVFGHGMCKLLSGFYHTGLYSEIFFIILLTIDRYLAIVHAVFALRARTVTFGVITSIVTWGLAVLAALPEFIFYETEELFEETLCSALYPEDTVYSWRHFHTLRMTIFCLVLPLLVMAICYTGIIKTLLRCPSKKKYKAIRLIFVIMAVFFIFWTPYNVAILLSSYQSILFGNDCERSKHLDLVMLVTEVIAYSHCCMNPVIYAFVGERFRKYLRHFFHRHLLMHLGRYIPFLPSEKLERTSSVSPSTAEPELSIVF
As to the kind of experiment: CCR-3 competition binding SPA (scintillation proximity assay). The note with it: read-out: CCR-3 Binding Assay (pIC50) (converted). As for the experimental part: A CCR-3 competition binding SPA (scintillation proximity assay) was used to assess the affinity of novel compounds for CCR-3. Membranes prepared from K562 cells stably expressing CCR-3 (2.51 μg/well) were mixed with 0.25 mg/well wheat-germ agglutinin SPA beads (Amersham) and incubated in binding buffer (HEPES 50 mM, CaCl2 1 mM, MgCl2 5 mM, 0.5% BSA) at 4° C. for 1.5 hr. Following incubation, 20 pM of [^125I) eotaxin (Amersham) and increasing concentrations of compound (1 pM to 30 μM) were added and incubated in a 96 well plate for 2 hr at 22° C. then counted on a Microbeta plate counter. The total assay volume was 100 μl. Competition binding data were analysed by fitting the data with a four parameter logistic equation. Data are presented as the mean pIC50 values (negative logarithm of the concentration of compound which inhibits [^125I] eotaxin binding by 50%) from at least two experiments.

`NS(=O)(=O)c1cccc(CC(=O)NC[C@H]2CN(Cc3ccc(Cl)c(Cl)c3)CCO2)c1` [Example 162]: the “CCR-3 Eosinophil Chemotaxis Assay (fpKi)” value on eosinophil chemotaxis is listed as 8.2. Further, at CCR-3, the IC50 is 12.6 nM.
